Measured values: patent US12016943B2, “Antiperspirant or deodorant composition” (Firmenich SA, priority 2016, dated 2024)

Experiments:
[1] = Sensory evaluation of spray deodorant on cotton t-shirts: perceived fragrance intensity; conditions: deodorant spray on t-shirt, immediately after application
Text: Test formulations comprising either fragrance formulation 1 containing the β-thio carbonyl derivative profragrance of formula (I), commercially available as HALOSCENT®-D, at the amounts indicated, or fragrance formulation 1 containing the 0-thio carbonyl derivative profragrance of formula (I), commercially available as HALOSCENT®-I were formulated as deodorant sprays.
One gram of each of the test formulation was applied to separate 2-3 year old cotton t-shirts. In parallel, control formulations, comprising fragrance formulation alone (i.e., lacking the β-thio carbonyl derivative profragrance of formula (I)) were similarly applied to separate t-shirts.
A minimum of 18 skilled panelists were asked to evaluate the intensity of the fragrance of the […], in a blind, balanced, randomized study, with a 20 second break between samples.
The panelists were asked to rank the intensity of the fragrance from 0 (not perceptible), to 10 (very strong odour). The results of the evaluation were analyzed using Analysis of Variance with Duncan's post-hoc analysis (α=0.05). The analyzed results are shown in FIG. 1, where the average for each sample at the times indicated are shown. The error bars indicate the 95% confidence level. ***=a significant difference at 99.9%; **=a significant difference at 99%; *=significant difference at 95%; NS=no significant difference.

[2] = Assessment of coloration of deodorant or antiperspirant formulations containing perfuming ingredients with or without Haloscent D; type: physicochemical; parameters: key to Coloration of antiperspirant stick: CO: color; COYE: yelow color; VSCOYE: very slight yellow color; SCOYE: slight yellow color; VCOYE: very yellow color; NC: no color; DECO: decoloration; CL: cloud; VCL: very cloud; WH: white; VCOBR: very brown color; COPI: ping color; conditions: perfuming ingredient 0.5 wt %; for Coloration of antiperspirant stick: after 7 days
Experimental: (§1) Preparation of an Antiperspirant Spray Formulation: Using a high speed stirrer, Silica (Table 1) and Quaternium-18-Hectorite (Table 1) were added to the Isopropyl miristate (Table 1) and Cyclomethicone mixture (Table 1). Once completely swollen, Aluminium Chlorohydrate (Table 1) was added portion wise under stirring until the mixture was homogeneous and without lumps. The aerosol cans were filled with 25% Suspension of the suspension and 75% of Propane/Butane (2.5 bar).
(§2) Preparation of Deodorant Spray Formulation: All the ingredients according to the sequence of the Table 2 were mixed and dissolved. Then the aerosol cans were filled, crimp and add the propellant (Aerosol filling: 40% active solution 60% Propane/Butane 2.5 bar).
(§3) Part A was prepared by sprinkling little by little the Hydroxyethylcellulose (Table 3) in the water (Table 3) whilst rapidly stirring with the turbine. Stirring was continued until the Hydroxyethylcellulose had entirely swollen and giving a limpid gel. Then, Part B (Table 3) was poured little by little in Part A whilst continuing stirring until the whole was homogeneous. Part C was added (Table 3).
(§4) Preparation of a Deodorant Stick Formulation: All the components of Part A were weighted (Table 4) and heated up to 70-75° C. Ceteareth-25 (Table 4) was added once the other Part A ingredients were mixed and heated. Once the Ceteareth-25 was dissolved, the Stearic Acid was added. Part B was prepared by dissolving the Triclosan (Table 4) in 1,2 Propylene Glycol (Table 4). Water which has evaporated was added. Slowly under mixing, Part B was poured into part A. To stock, a plastic bag into the bucket was put in to be sealed after cooling. Moulds was filled at about 70° C.
(§5) Preparation of an Antiperspirant Stick Formulation: All the components of Part A were weighted (Table 5), heated up to 70-75° C. and mixed well. Ingredient of Part B was dispersed in Part A. The mixture was mixed and putted into a tick at 65° C.
(§6) Assessment of Coloration in the Perfuming Ingredients: To set of deodorant or antiperspirant formulations of point a) to e) has been prepared. A perfuming ingredient (0.5 wt %—Table 6, 7 and 8) was added to the first set a and a perfuming ingredient (0.5 wt %—Table 6, 7 and 8) and Haloscent® D (0.5 wt %) were added to the second set. All these formulations were placed at 3° C. and 45° C. for several weeks. All formulations were evaluated in comparison with unperfumed deodorant or antiperspirant formulation. The coloration of each formulation was assessed by a minimum of 2 panelists.

[3] = as above; type: physicochemical; parameters: key: CO: color; COYE: yelow color; VSCOYE: very slight yellow color; SCOYE: slight yellow color; VCOYE: very yellow color; NC: no color; DECO: decoloration; CL: cloud; VCL: very cloud; WH: white; VCOBR: very brown color; COPI: ping color; conditions: perfuming ingredient 0.5 wt %, after 15 days
Experimental: as §1, §2, §3, §4, §5, §6

[4] = as above; type: physicochemical; parameters: key: CO: color; COYE: yellow color; SCOYE: slight yellow color; VCOYE: very yellow color; NC: no color; DECO: discoloration; CL: cloud; VCL: very cloud; WH: white; VCOBR: very brown color; COPI: ping color; conditions: perfuming ingredient 0.5 wt %, after 15 days; for Coloration of deodorant spray: DEO SPRAY + Haloscent D 0.5 wt %; for Coloration of deodorant stick: DEO STICK + Haloscent D 0.5 wt %
Experimental: as §1, §2, §3, §4, §5, §6

[5] = AP Stick + Haloscent D 0.5 wt %, 3° C.
[6] = AP Stick + Haloscent D 0.5 wt %, 45° C.
[7] = AP SPRAY + Haloscent D 0.5 wt %, 3° C.
[8] = AP SPRAY + Haloscent D 0.5 wt %, 45° C.
[9] = DEO ROLL-ON + Haloscent D 0.5 wt %, 3° C.
[10] = DEO ROLL-ON + Haloscent D 0.5 wt %, 45° C.
[11] = DEO STICK + Haloscent D 0.5 wt %, 3° C.

Coloration of antiperspirant stick [2, 5] | Coloration of antiperspirant stick [2, 6] | Coloration of antiperspirant stick ([2]; AP Stick, 3° C.) | Coloration of antiperspirant stick ([2]; AP Stick, 45° C.) | Coloration of antiperspirant spray [3, 7] | Coloration of antiperspirant spray [3, 8] | Coloration of deodorant roll-on [3, 9] | Coloration of deodorant roll-on [3, 10] | Coloration of deodorant roll-on ([3]; DEO ROLL-ON, 3° C.) | Coloration of deodorant roll-on ([3]; DEO ROLL-ON, 45° C.) | Coloration of deodorant stick [3, 11] | Coloration of deodorant stick ([3]; DEO STICK, 3° C.) | Coloration of deodorant stick ([3]; DEO STICK, 45° C.) | Coloration of deodorant spray ([4]; 45° C.) | Molecule | also measured
 |  |  |  |  |  |  |  |  |  |  |  |  |  | CCCCCCCCCCCCSC(CC(C)=O)C1C(C)=CCCC1(C)C (centres unmarked) [HALOSCENT®-I, 4-(dodecylthio)-4-(2,6,6-trimethylcyclohex-2-en-1-yl)butan-2-one] | Perceived intensity of fragrance versus control formulation (FIG. 1) ([1]; fragrance formulation 1 containing 3% HALOSCENT-I): significant increases
DECO | SCOYE | DECO | VSCOYE | SCOYE | SCOYE | WH | VCL | VCL | VCL | NC | NC | NC | DECO | 1-OXA-12-CYCLOHEXADECEN-2-ONE (A) + 1-OXA-13-CYCLOHEXADECEN-2-ONE [HABANOLIDE] | Coloration of antiperspirant spray ([3]; AP SPRAY, 3° C.): NC; Coloration of antiperspirant spray ([3]; AP SPRAY, 45° C.): NC; Coloration of deodorant spray ([3]; DEO SPRAY, 3° C.): NC; Coloration of deodorant spray ([3]; DEO SPRAY, 45° C.): NC; Coloration of deodorant stick ([3]; DEO STICK + Haloscent D 0.5 wt %, 45° C.): NC; Coloration of deodorant spray ([4]; 3° C.): DECO
DECO PI | DECO PI |  |  | NC | SCOYE | NC | NC |  |  | NC |  |  | COYE | CCCCCCCCCCCCSC(C)CC(=O)C1C(C)C=CCC1(C)C (centres unmarked) [Haloscent ® D, 3-(dodecylthio)-1-(2,6,6-trimethylcyclohex-3-en-1-yl)butan-1-one] | Coloration of deodorant stick ([2]; DEO STICK + Haloscent D 0.5 wt %, 45° C., after 15 days): COYE CL; Perceived intensity of fragrance versus control formulation (FIG. 1) ([1]; fragrance formulation 1 containing 1.2% HALOSCENT-D): significant increases; Coloration of deodorant spray ([3]; DEO SPRAY + Haloscent D 0.5 wt %, 3° C.): SCOYE
VSCO | NC | DECO | NC |  |  | NC | NC | NC | NC |  | NC | NC |  | CC(C)=CCC/C(C)=C/CO [(E)-3,7-DIMETHYL-2,6-OCTADIEN-1-OL] | Coloration of deodorant stick ([4]; 3° C.): COYE; Coloration of deodorant stick ([4]; 45° C.): COYE
